Measured values taken from paper PMC12838644, “Dihydrotanshinone as a Natural Product-Based CYP17A1 Lyase Inhibitor for Hyperandrogenic Disorders” (Biomolecules, 2026).
Where two headings read alike, the source gives them in different places.

Columns and labels:
[1] = target: T1, CYP21A2 (Homo sapiens, UniProt P08686); assay: CYP21A2 activity assay in transiently transfected HEK-293T cells; assay type: cell-based; details: for inhibition at 10 µM: read-out: % Inhibition CYP21A2
T1 construct: expressed in transfected cells; host or cells: HEK293 / HEK-293T
T1 sequence (P08686 1-495): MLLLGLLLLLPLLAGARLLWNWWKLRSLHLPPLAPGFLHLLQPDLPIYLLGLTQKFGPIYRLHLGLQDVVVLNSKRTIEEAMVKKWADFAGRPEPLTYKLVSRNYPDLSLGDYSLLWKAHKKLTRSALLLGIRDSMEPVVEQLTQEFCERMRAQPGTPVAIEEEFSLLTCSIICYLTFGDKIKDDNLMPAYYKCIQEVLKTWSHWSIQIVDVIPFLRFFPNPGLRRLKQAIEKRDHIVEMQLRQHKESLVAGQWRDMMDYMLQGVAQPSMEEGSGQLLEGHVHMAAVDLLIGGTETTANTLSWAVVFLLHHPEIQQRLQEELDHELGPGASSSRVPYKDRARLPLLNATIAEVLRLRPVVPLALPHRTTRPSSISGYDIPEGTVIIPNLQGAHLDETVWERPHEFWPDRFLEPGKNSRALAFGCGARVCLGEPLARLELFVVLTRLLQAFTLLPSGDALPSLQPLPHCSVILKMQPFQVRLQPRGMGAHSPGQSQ
Protocol: Transient transfections were performed using the CYP21A2 WT vector as described previously. HEK293 cells were seeded in six-well plates (3 × 10^5 cells/well). After 24 h, the growth medium was replaced, and cells were transfected using Lipofectamine 2000 (Thermo Fisher Scientific, Bedford, MA, USA) with 12.5 µg of plasmid (plasmid concentration: 1068 µg/mL). Twenty-four hours after transfection, transfected cells were replated in 24-well plates (1.5 × 10^5 cells/well) to ensure homogeneity of the cell population across the wells. Six hours after transfection, 2 mL of fresh medium was replaced, and the cells were cultured for 48 h. Cell growth was examined. […] DMSO was added to the negative control, and 10 µM abiraterone was added to the positive control, and the cells were incubated for 4 h. Functional assays were initiated by adding 1 µM unlabeled progesterone (using 10,000 cpm of [^14C]-progesterone as a tracer). After incubation at 37 °C for 1 h, the culture medium and cells were harvested. Steroids were extracted from the culture medium with ethyl acetate and isooctane (1:1 volume ratio), dried, and dissolved in dichloromethane. Steroids were separated by thin-layer chromatography (TLC), placed on a phosphor screen, and visualized using a Typhoon PhosphorImager FLA-7000 (GE Healthcare Bio-Sciences AB, Uppsala, Sweden). Image intensity was measured and quantified using ImageQuant TL v8 (Cytiva, Marlborough, MA, USA). The CYP21A2 enzyme activity was expressed as relative steroid conversion. Steroids were quantified as a percentage of radioactivity incorporated into […] to the total radioactivity measured in the whole sample and compared between the WT and variants. Cells were collected with trypsin and washed with 1× PBS to quantify the amount of protein. Results were analyzed from three technical replicates. To ensure a similar amount of CYP21A2 in each reaction, a Western blot analysis was performed to normalize the enzyme activity with the relative CYP21A2 expression.

[2] = tested on: CYP21A2; assay: Western blot of CYP21A2 protein expression in treated HEK-293T cells; assay type: cell-based, human; details: normalized to β-actin, 4 h treatment, DMSO control 1.07
Protocol: CYP21A2 expression was determined from total protein extracts. Cells were incubated with the previously described lysis buffer for 1 h and centrifuged at 10,000× g for 10 min at 4 °C [54]. The supernatant was collected, and total protein was determined using the Pierce Coomassie Plus (Bradford) assay kit (Thermo Fisher Scientific, Hanover Park, IL, USA). 50 μg of total protein was loaded onto an SDS-PAGE gel (GenScript, Piscataway, NJ, USA) and then transferred to a PVDF membrane as previously described. Two primary antibodies were used: a mouse DKY-Tag monoclonal antibody (GenScript, Catalog No. A00187) at a dilution of 1:1000 and a mouse anti-β-actin monoclonal antibody (Sigma Aldrich, St. Louis, MO, USA, Catalog No. SAB3500350) at a dilution of 1:1500. The secondary antibody, IRDye 800CW-conjugated donkey anti-mouse antibody (LI-COR, Lincoln, NE, USA, Catalog No. 926-32212), was used at a dilution of 1:15,000. Fluorescence signals were detected using an Odyssey SA infrared imaging system (LI-COR Bioscience Inc., Lincoln, NE, USA).

[3] = tested on: NCI-H295R, HEK-293T and RWPE-1 cells; assay: alamarBlue cytotoxicity assay, across all three cell lines; assay type: cell-based; details: Homo sapiens, read-out: half-maximal inhibitory concentrations (IC50), range across all three cell lines
Protocol: Human adrenocortical NCI-H295R cells (ATCC: CRL-2128) were purchased from ATCC and cultured in DMEM/Ham’s F-12 medium with L-glutamine and 15 mM HEPES (Thermo Fisher Scientific, Waltham, MA, USA), supplemented with 5% NU-Serum (Becton Dickinson, Franklin Lakes, NJ, USA), 0.1% insulin, transferrin, selenium (100 U/mL; Thermo Fisher Scientific, Waltham, MA, USA), and 1% penicillin (100 U/mL; Thermo Fisher Scientific, Waltham, MA, USA), and streptomycin (100 μg/mL; GIBCO, New York, NY, USA). RWPE-1 cells (ATCC: CRL-36O7) were cultured in keratinocyte serum-free media (K-SFM) supplemented with 0.05 mg/mL bovine pituitary extract and 5 ng/mL epidermal growth factor, and 1% penicillin (100 U/mL; Thermo Fisher Scientific, Waltham, MA, USA), and streptomycin (100 μg/mL; GIBCO). […] Additionally, key functional and morphological characteristics were assessed to verify their alignment with previously reported profiles.
The alamarBlue® assay (Thermo Fisher Scientific, Waltham, MA USA) was conducted as previously described. […] Cell viability was measured using the alamarBlue® assay. […] The plates were incubated in the dark at 37 °C with 5% CO2 for 4 h, and fluorescence was measured at an excitation wavelength of 540 nm and an emission wavelength of 590 nm. Cell viability was calculated relative to the control sample treated with DMSO. […]

[4] = 10 µM (SM extract 10 µg/mL), transfected HEK-293T cells, calculated as 100% − % residual activity

Compound | % Inhibition CYP21A2 [1, 4] | inhibition at 10 µM [1, 4] | CYP21A2 protein levels, normalized densitometry values [2] | IC50 [3] | Residual CYP21A2 activity ([1]; % of DMSO control, 10 µM, transfected HEK-293T cells) | inhibition at 10 µM ([1]; HEK-293T)
Cc1coc2c1C(=O)C(=O)c1c-2ccc2c(C)cccc12 [TAI, tanshinone I] | no meaningful inhibition | < 1% | – | – | – | –
Cc1coc2c1C(=O)C(=O)c1c-2ccc2c1CCCC2(C)C [TAII, tanshinone IIA] | no meaningful inhibition | < 1% | 1.30 | – | – | –
Cc1cccc2c3c(ccc12)C1=C(C(=O)C3=O)[C@@H](C)CO1 [DT, dihydrotanshinone I] | – | – | 1.15 | 950 to 1400 nM | 85% | 14.9%
